Results on 18 compounds are retold here after US5244905A, “N-substituted cycloalkyl and polycycloalkyl polyhydro-β-carboline-phenylalanine- and phenethylamine derivatives” (Warner-Lambert Company, priority 1991, dated 1993).

For one assay, the target named is T1, CCK-B receptor (Mus musculus, UniProt P56481).
T1 construct: from tissue
T1 sequence (P56481 1-453): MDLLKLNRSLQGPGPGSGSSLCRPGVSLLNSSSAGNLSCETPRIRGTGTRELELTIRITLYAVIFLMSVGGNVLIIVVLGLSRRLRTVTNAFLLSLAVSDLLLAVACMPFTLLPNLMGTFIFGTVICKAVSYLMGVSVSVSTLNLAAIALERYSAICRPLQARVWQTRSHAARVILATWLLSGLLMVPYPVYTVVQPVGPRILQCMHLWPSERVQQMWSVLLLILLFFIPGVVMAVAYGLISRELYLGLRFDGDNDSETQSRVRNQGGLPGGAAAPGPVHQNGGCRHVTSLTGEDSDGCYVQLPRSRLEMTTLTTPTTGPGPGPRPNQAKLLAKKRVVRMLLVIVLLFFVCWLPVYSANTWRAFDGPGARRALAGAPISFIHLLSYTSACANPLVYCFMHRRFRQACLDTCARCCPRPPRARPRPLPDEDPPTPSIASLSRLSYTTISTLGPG
In words: Binding to the CCK-B receptor (Table III). Details: species or system mouse (male CFLP). The protocol: (§1) The biological activity of compounds of the present invention was evaluated employing an initial screening test which rapidly and accurately measured the binding of the tested compound to known CCK receptor sites. […] (See Hays et al, Neuropeptides 1:53-62, 1980; and Satuer et al, Science, 208:1155-1156, 1980.
(§2) In this screening test, the cerebral cortices taken from male CFLP mice weighing between 30-40 g were dissected on ice, weighed, and homogenized in 10 volumes of 50 mM Tris-HCl buffer (pH 7.4 at 0°-4° C.). The resulting suspension was centrifuged, the supernate was discarded, and the pellet was washed by resuspension in Tris-HCl buffer followed by recentrifugation. The final pellet was resuspended in 20 volumes of […] Hepes buffer (pH 7.2 at 23° C.) containing 130 mM NaCl, […] KCl, […] MgCl2, […] EDTA, 5 mg/mL bovine albumin, and bacitracin (0.25 mg/mL).
(§3) In saturation studies, cerebral cortical membranes were incubated at 23° C. for 120 minutes in a final volume of 500 μliter of Hepes incubation buffer (pH 7.2) together with 0.2-20 nM tritiated-pentagastrin (Amersham International, England).
(§4) In the displacement experiments, membranes were incubated with a single concentration (2 nM) of ligand, together with increasing concentrations ([…]) of competitive test compound. In each case, the nonspecific binding was defined as that persisting in the presence of the unlabeled octapeptide CCK26-33 (10^-6 M).
(§5) Following incubation, radioactivity bound to membranes was separated from that free in solution by rapid filtration through Whatman GF/B filters and washed three times with 4 mL of ice cold Tris-HCl buffer. Filters from samples incubated with tritiated-pentagastrin were placed in polyethylene vials with 4 mL of scintillation cocktail, and the radioactivity was estimated by liquid scintillation spectrometry (efficiency 47% to 52%).
(§6) The specific binding to CCK receptor sites was defined as the total bound tritiated-pentagastrin minus the amount of tritiated-pentagastrin bound in the presence of 10^-6 octapeptide, CCK26-33.
(§7) Saturation curves for specific tritiated-pentagastrin binding to mouse cortical membranes were analyzed by the methods of Scatchard (Ann. New York Acad. Sci. 51:660 672, 1949, and Hill (J. Physiol. 40:IV-VIII, 1910, to provide estimates for the maximum number of binding sites (Bmax) and the equilibrium dissociation constant ([…]).
(§8) In displacement experiments, inhibition curves were analyzed by either logit-log plots or the iterative curve fitting computer program ALLFIT (DeLean, Munson and Redbard, 1978) to provide estimates of the IC50 and nH (apparent Hill coefficient) values). (IC50 values were defined as the concentration of test compound required to produce 50% inhibition of specific binding.)
(§9) The inhibition constant (Ki) of the test compound was then calculated according to the Cheng-Prusoff equation: [formula] where [L] is the concentration of radiolabel and Ka is the equilibrium dissociation constant.

For a further assay, the target named is T2, Central CCK Receptors (Mus musculus, UniProt P56481).
T2 construct: from tissue; host or cells: cerebral cortex of male CFLP mice (washed membranes)
T2 sequence (P56481 1-453): T1 sequence (P56481 1-453)
Kind of assay: Binding to central CCK receptors ([3H]-pentagastrin displacement, mouse cerebral cortical membranes). The note with it: tritiated pentagastrin 2 nM, number of assays (n) = 2. Also on record: species or system mouse (male CFLP). The method, then:
as §1, §2, §3, §4, §5, §6, §7, §8, §9
The Ki values for several representative compounds of the present invention are present in Table II.

As to `CC1(C(=O)NCCc2ccccc2)Cc2c([nH]c3ccccc23)CN1S(=O)(=O)NC1C2CC3CC(C2)CC1C3` (racemic) [Example 19, (+/-)-1,3,4,9-Tetrahydro-3-methyl-N-(2-phenylethyl)-2-(tricyclo[(3.3.1.1^3,7]dec-2-ylamino]sulfonyl]1H-pyrido-[3,4-b]indole-3-carboxamide], the “Ki CCK-B” value on CCK-B receptor is listed as “iA”. Consider `CC1(C(=O)NCC(O)c2ccccc2)Cc2c([nH]c3ccccc23)CN1C(=O)OC1C2CC3CC(C2)CC1C3` (stereo not shown) [Example 12], for which the Ki at Central CCK Receptors and on CCK-B receptor was 710 nM throughout. `CC1(C(=O)NCC(OC(=O)CCC(=O)O)c2ccccc2)Cc2c([nH]c3ccccc23)CN1C(=O)OC1C2CC3CC(C2)CC1C3` (stereo not shown) [Example 13]: the Ki at Central CCK Receptors and at CCK-B receptor was 1000 nM each time. Regarding `C[C@]1(C(=O)N[C@H](CO)Cc2ccccc2)Cc2c([nH]c3ccccc23)CN1C(=O)OC1C2CC3CC(C2)CC1C3` (stereo partly shown) [Example 5], the Ki on Central CCK Receptors and on CCK-B receptor was 730 nM each time.

As to `CC1(C(=O)NCC(NC(=O)CC(=O)O)c2ccccc2)Cc2c([nH]c3ccccc23)CN1C(=O)OC1C2CC3CC(C2)CC1C3` (mixture of isomers) [Example 14, 3-[[[2-[(3-Carboxyacetyl)amino]-2-phenethyl]-amino]-carbonyl]-1,3,4,9-tetrahydro-3-methyl-2H-pyrido[3,4-b]indole-2-carboxylic acid, [tricyclo-[3.3.1.1^3,7]dec-2-yl ester (mixture of diastereomers)], the Ki at Central CCK Receptors and on CCK-B receptor was 1000 nM each time.

In the case of `CC1(C(=O)NCC(NC(=O)CCC(=O)O)c2ccccc2)Cc2c([nH]c3ccccc23)CN1C(=O)OC1C2CC3CC(C2)CC1C3` (stereo not drawn) [Example 9, 3-[[[2-(3-Carboxy-1-oxopropyl)-amino]-2-phenylethyl]amino]carbonyl]-1,3,4,9-tetrahydro-3-methyl-2H-pyrido[3,4-b]indole-2-carboxylic acid, tricyclo[3.3.1.1^3,7]dec-2-yl ester, [R-(R*,R*)] and [R-(R*,S*)]-], the Ki on Central CCK Receptors and on CCK-B receptor was 500 nM in each case. Regarding `C[C@]1(C(=O)NCCc2ccccc2)Cc2c([nH]c3ccccc23)CN1C(=O)OC1C2CC3CC(C2)CC1C3` (stereo partly shown) [Example 2], the Ki at Central CCK Receptors and at CCK-B receptor was 600 nM throughout. With `CC1(C(=O)N[C@@H](CO)[C@@H](O)c2ccccc2)Cc2c([nH]c3ccccc23)CN1C(=O)OC1C2CC3CC(C2)CC1C3` (stereo partly shown) [Example 7, 1,3,4,9-Tetrahydro-3-[[[1-(hydroxymethyl)-2-hydroxy-2-phenylethyl]amino]carbonyl]-3-methyl-2H-pyrido[3,4-b]-indole-2-carboxylic acid,tricyclo[3.3.1.1^3,7]dec-2-yl ester], the Ki at Central CCK Receptors and at CCK-B receptor was 860 nM in each case. Take `CC1(C(=O)NCC(N)c2ccccc2)Cc2c([nH]c3ccccc23)CN1C(=O)OC1C2CC3CC(C2)CC1C3` (mixture of isomers) [Example 8, 3-[[(2-Amino-2-phenylethyl)amino]carbonyl]-1,3,4,9-tetrahydro-3-methyl]-2H-pyrido[3,4-b]indole-2-carboxylic acid, tricyclo[3.3.1.1^3,7]dec-2-yl ester, (mixtures of diastereomers)]: the Ki at Central CCK Receptors and at CCK-B receptor was 3000 nM each time. As to `O=C(NCCc1ccccc1)C1Cc2c([nH]c3ccccc23)CN1C(=O)OC1C2CC3CC(C2)CC1C3` (racemic) [Example 17], the Ki at Central CCK Receptors and on CCK-B receptor was 990 nM throughout. Turning to `CC1(C(=O)NCC(NC(=O)/C=C\C(=O)O)c2ccccc2)Cc2c([nH]c3ccccc23)CN1C(=O)OC1C2CC3CC(C2)CC1C3` (mixture of isomers) [Example 15, 3-[[[2-[(3-Carboxy-1-oxo-2-propenyl)amino]-b 2-phenethyl]amino]carbonyl]1,3,4,9-tetrahydro-3-methyl-2H-pyrido[3,4-b]indole-2-carboxylic acid, [tricyclo-[3.3.1.1^3.7]dec-2-yl ester (mixture of diastereomers)], the Ki at Central CCK Receptors and on CCK-B receptor was 710 nM each time. `CC(C)(C)OC(=O)N1Cc2[nH]c3ccccc3c2CC1C(=O)NC(Cc1ccccc1)C(=O)O` (stereo not shown) [Example 18, 3-[[1(I-Carboxy-2-phenethyl)amino]carbonyl]-1,3,4,9-tetrahydro-2H-pyrido[3,4-b]indole-2-carboxylic acid, 1,1-dimethylethyl ester]: the Ki at Central CCK Receptors and on CCK-B receptor was 6000 nM in each case. Turning to `C[C@@]1(C(=O)NCCc2ccccc2)Cc2c([nH]c3ccccc23)CN1C(=O)OC1C2CC3CC(C2)CC1C3` (stereo partly shown) [Example 3], the “Ki CCK-B” value at CCK-B receptor is recorded as “iA”. Turning to `CC1(C(=O)N[C@H](CO)Cc2ccccc2)Cc2c([nH]c3ccccc23)CN1C(=O)OC1C2CC3CC(C2)CC1C3` (mixture of isomers) [Example 4, 1,3,4,9-Tetrahydro-3-[[[1-(hydroxymethyl)-2-phenylethyl]amino]carbonyl]-3-methyl-2H-pyrido[3,4-b]indole-2-carboxylic acid,tricyclo[3.3.1.1^3,7]dec-2-yl ester (mixture of diastereomers)], the Ki at Central CCK Receptors and at CCK-B receptor was 500 nM each time. As to `CC1(C(=O)NCCc2ccccc2)Cc2c([nH]c3ccccc23)CN1C(=O)OC1C2CC3CC(C2)CC1C3` (racemic) [Example 1, (±)1,3,4,9-Tetrahydro-3-methyl-3-[[2-phenylethyl)amino]carbonyl]-2H-pyrido[3,4-b]indole-2-carboxylic acid,tricyclo[3.3.1.1^3,7]dec-2-yl ester], the Ki at Central CCK Receptors and at CCK-B receptor was 150 nM in each case. In the case of `CC1(C(=O)NCC(NC(=O)CCC(=O)OCc2ccccc2)c2ccccc2)Cc2c([nH]c3ccccc23)CN1C(=O)OC1C2CC3CC(C2)CC1C3` (mixture of isomers) [Example 11, 3-[3-[3-[2-[2-[1,4-Dioxo-4-(phenylmethoxy)butyl]amino]-2-phenylethyl]amino]carbonyl]-1,3,4,9-tetrahydro-3-methyl]-2H-pyrido[3,4-b]indole-2-carboxylic acid, tricyclo[3.3.1.1^3.7]dec-2-yl ester (mixture of diastereomers)], the Ki at Central CCK Receptors and on CCK-B receptor was 3000 nM each time. Consider `CC1(C(=O)N[C@H](CNC(=O)CCC(=O)O)Cc2ccccc2)Cc2c([nH]c3ccccc23)CN1C(=O)OC1C2CC3CC(C2)CC1C3` (mixture of isomers) [Example 16, 3-[[1-(3-Carboxy-1-oxopropyl)amino]methyl]-1-phenethyl]amino]carbonyl]-1,3,4,9-tetrahydro-3-methyl2H-pyrido[3,4-b]indole-2-carboxylic acid, [tricyclo-[3.3.1.1^3,7]dec-2 yl ester (mixture of diastereomers)], for which the Ki at Central CCK Receptors and on CCK-B receptor was 305 nM in each case. Take `C[C@@]1(C(=O)N[C@H](CO)Cc2ccccc2)Cc2c([nH]c3ccccc23)CN1C(=O)OC1C2CC3CC(C2)CC1C3` (stereo partly drawn) [Example 6, (S)-1,3,4,9-Tetrahydro-3-[[[1-(hydroxymethyl)-2-phenylethyl]amino]carbonyl]-3-methyl-2H-pyrido[3,4-b]indole-2-carboxylic acid,tricyclo[3.3.1.1^3,7]dec-2-yl ester ester]: the inhibition constant (Ki) on Central CCK Receptors and at CCK-B receptor was 1500 nM throughout.
